The values that follow come from PMC5503984, “Characterisation of preproendothelin-1 derived peptides identifies Endothelin-Like Domain Peptide as a modulator of Endothelin-1” (Scientific Reports, 2017).

Where no end group is shown, it is not given here.

Series [1] has as its system human aortic endothelial cells. The experiment in a line: Secretion of ET-1 and proET-1 peptides from cultured human aortic endothelial cells (sandwich ELISA). In kind it is cell-based. The note with it: 6 h incubation. The source says:
To confirm that proET-1 peptides are a reproducible index of ET-1 synthesis we compared the level of peptide production in cultured human aortic endothelial cells under conditions known to increase or decrease ET-1 expression. These experiments also confirmed that early passage human endothelial cells from primary cultures produce the same peptides with the stoichiometric relationship expected for proET-1 processing.
Figure 3 Correlation between secretion of ET-1 and proET-1 peptides from human aortic endothelial cells. Confluent cultures were incubated for 6 h in basal medium alone, or with 1 mM phosphoramidon (PHA), 2.5 or 5 µg/ml apple procyanidin pentamer (AP-2.5, AP-5), 5 µg/ml grape seed extract (GSE), 10 ng/ml TNFα or 1 ng/ml TGFß. All peptides were measured using specific sandwich ELISAs, and converted to % basal release (A,B,C,E and G). Results are mean ± SD from 4 experiments. Significant differences were determined by ANOVA with Bonferroni correction for multiple comparisons (*P = < 0.05; ***P = < 0.001). (D,F) and (H) show correlations between secretion of ET-1 and the respective proET-1 peptides under the different incubation conditions (excluding data obtained with phosporamidon).
Underlined sequences in Table 1 indicate peptide antigens used to raise specific antisera for sandwich immunoassays following previously described methodologies. Immunogens for ppET-1[93–109] and ppET-1[155–166] were prepared by conjugation via terminal Cys residues to maleimide groups on pre-treated carrier proteins. To enable conjugation of ppET-1[18–30], ppET-1[93–102] and ppET-1[169–186] by the maleimide methodology, synthetic peptides for these antigens included a C-terminal Cys-NH2 residue. Immunogens for ppET-1[42–50] and ppET-1[204–212] were prepared by glutaraldehyde conjugation to carrier protein[30]. For initial characterisation of conditioned media samples, rabbit antisera raised against ppET-1[42–50] and ppET-1[93–102] were used to establish radioimmunoassays for these peptide antigens. Subsequent investigations used sandwich ELISA methodologies with specific IgG purified from antisera using the respective peptide antigens (Table 1) coupled to SulfoLink Coupling Resin (Thermo Scientific/Pierce) or CNBr-Sepharose (GE Healthcare)[30]. Purified IgG for use as detection antibodies were biotinylated with NHS-LC-LC-biotin (Thermo Scientific/Pierce), and used for assay measurements with enhanced chemiluminescence.
EA.hy 926 and A549 cell lines were grown in Dulbecco’s modified Eagle medium with 10% fetal bovine serum at 37 °C in a humidified CO2 incubator (8% CO2, 92% air) as previously described, [30]. Human aortic endothelial cells were passaged cells from primary cultures grown in endothelial cell basal medium with growth supplement (Cell Applications Inc.), and used when confluent to compare secretion of proET-1 peptides with ET-1. Purified apple procyanidin pentamer was from Asahi Breweries (Moriya, Ibaraki 302–0106, Japan), grape seed extract was form Polyphenolics (Madera, CA), TNFα and TGFβ were from R&D Systems.

Series [2] can be described thus: Clearance of proET-1 peptides after i.v. bolus in anaesthetised rats. In kind it is in vivo, rat. The note with it: rat; for plasma level at 30 s as % of administered peptide, relative to estimates for dilution in circulating blood: 1 nmol/kg i.v., hypothetical maximum plasma concentration 23–35 pmol/ml; for level at time molar at 0.5 min: iv, anaesthetised male Wistar rats, bolus 1 nmol/kg i.v. of each peptide as a combined solution in 0.9% saline/0.1% BSA, arterial plasma, Luminex multiplex immunoassay, mean ± SD, read-out: plasma level 30 s after injection. The protocol:
To examine whether circulating half-lives influenced plasma levels of proET-1 peptides clearance rates were investigated in anaesthetised rats. […] Based on a circulating blood volume of 7.2 ± 0.3 ml per 100 g body weight, a mean weight of 345 ± 6 g and hematocrit of 40–60%, the hypothetical maximum plasma concentrations were 23–35 pmol/ml. However, the levels of NT-proET-1, ELDP and CT-proET-1 30 s after injection were 0.29 ± 0.02, 3.65 ± 0.23, and 11.74 ± 0.64 pmol/ml, respectively. Relative to estimates for dilution in circulating blood, these values represent ≈1%, 10–16%, and 34–51% of administered peptide for NT-proET-1, ELDP and CT-proET-1. Moreover, NT-proET-1 was almost completely cleared from the circulation in <5 min (estimated initial t½ < 20 s).
Figure 5 Comparison of clearance rates of NT-proET-1, ELDP and CT-proET-1 in anaesthetised rats. A bolus dose containing 1 nmol/kg of each proET-1 peptide as a combined solution prepared in 0.9% saline/0.1% BSA was administered i.v. and heparinised arterial blood samples (0.5 ml) were collected at 0.5, 1, 2, 5, 10, 20 and 40 min after administration of proET-1 peptides. NT-proET-1 (mauve circles), ELDP (red circles) and CT-proET-1 (blue circles) were measured by magnetic bead-based multiplex assays using Luminex methodology (values are mean ± SD, except where SD is less than the symbol size).
A multiplexed immunoassay system was used for simultaneous measurement of NT-proET-1, ELDP and CT-proET-1 in small volumes of rat plasma. Capture antibodies were conjugated to magnetic beads (region 45 – NT-proET-1, region 36 – ELDP, and region 27 – CT-proET-1) following standard protocols (Luminex Corporation). For assay capture antibody-coated magnetic beads were diluted as a premixed combination (10 µl/well) and incubated overnight at 4 °C on an orbital plate mixer with plasma (15 µl) and assay buffer (135 µl). For detection, beads were washed using a ring magnet plate washer before adding 25 µl of combined biotinylated detection antibodies and incubating for 2 h at room temperature on an orbital plate mixer.
All experiments were conducted according to the Animals (Scientific Procedures) Act 1986, UK, and approved by the UK Home Office. Clearance rates of proET-1 peptides and blood pressure effects of ELDP were determined in male Wistar rats (Charles River) anaesthetised with sodium thiopentone (120 mg/kg i.p.). Peptides were administered i.v. via a polyethylene catheter in the left femoral vein. Blood samples (0.5 ml) were collected from a catheter in the left carotid artery into chilled 1.5 ml microcentrifuge tubes containing 50 U/5 µl of heparin. Samples were centrifuged at 12,000 rpm for 2 min at 4 °C. Plasma (50 µl aliquots) samples were stored at −80 °C for subsequent analyses. Blood pressure and heart rate were recorded from the left carotid artery via a polyethylene catheter using Labchart 7.1 (AD Instruments Ltd).

For series [3] the following is noted: ET-1; cited from earlier work. The text has this:
After intravenous injection NT-proET-1 was rapidly eliminated from the circulation (t½ < 20 s). Such rapid clearance indicates uptake or metabolism. ET-1 also has a short t½ (30–60 s)[42], [43], which is due primarily to clearance by endothelial ETB receptors in the pulmonary vasculature, [45], and to a lesser extent degradation by neutral endopeptidase 24.11, particularly in post capillary veins, [47]. In the absence of receptor-mediated clearance, the high disappearance rate of NT-proET-1 is likely due to peptidase activity in the circulation, particularly in the pulmonary circulatio ...

Series [4] can be described thus: RP-HPLC elution position of synthetic proET-1 peptides. In kind it is physicochemical. Conditions: ACE-5 C4 300 Å, 5 µm, 4.6 × 250 mm, 1 ml/min, 0.1% TFA – 10% solvent B (80% CH3CN with 0.1% TFA) over 2 min, then 10–30% B over 50 min, 1 min fractions, absorbance at 280 nm and immunoassay. The protocol: Figure 2 Size exclusion chromatography of peptide precipitates from (A) EA.hy 926 and (B) A549 cell lines, (C) cation exchange chromatography of conditioned media from EA.hy 926, and HPLC characterisation of pro-ET-1 peptides from EA.hy 926 cells – (D) NT-proET-1, (E) ELDP and (F) CT-proET-1. (A) and (B) proendothelin-1 peptides from EA.hy 926 and A549 cell lines were subjected to size exclusion chromatography (column 1.6 × 100 cm, Sephadex G50 superfine) equilibrated at 4 °C with 0.1 M NaCl containing 0.01 M HCl. Fractions were subjected to immunoassay for ppET-1[42–50] (open circles) and ppET-1[93–102] (closed circles). Elution positions of adrenomedullin (ADM, M r 6029), big ET-1 (bET-1, M r 4283) and ET-1 (M r 2492) are indicated. […] ELDP (red columns) and CT-proET-1 (blue columns) were measured using immunoassays. […]
ProET-1 peptides were subjected to reverse phase HPLC on C4 silica (15 µm, 300 Å pore, 1 × 25 cm; Jupiter® Phenomenex) with gradient elution at 2 ml/min: 0.1% TFA – 15% solvent B (80% CH3CN with 0.1% TFA) over 2 min, followed by 15–60% B over 45 min. […] Synthetic peptides were used to characterise elution positions of NT-proET-1, ELDP and CT-proET-1 on this second HPLC system by monitoring absorbance at 280 nm and immunoassay of fractions. […]

For series [5] the following is noted: cited from earlier work. The source says:
The endothelin-like domain sequence is highly conserved with the first four Cys residues having identical spacing to ET-1 (Fig. 6)[18], [19]. There is also considerable sequence homology adjacent to the endothelin-like domain, which has been retained throughout mammalian evolution, such that human ppET-1[107–131] has 92% sequence identity with mouse ELDP and 88% with platypus over this sequence. […] However, choice of test conditions and pepti ...

Where [6] appears, read: 1 mM phosphoramidon, 4 experiments.
The mark [7] stands for this setting: 1 nmol/kg i.v. bolus, plasma sampled 0.5–40 min, two-phase clearance.

Turning to `CC(C)C[C@H](NP(=O)(O)O[C@@H]1O[C@@H](C)[C@H](O)[C@@H](O)[C@H]1O)C(=O)N[C@@H](Cc1c[nH]c2ccccc12)C(=O)O` [phosphoramidon], in series [1] (setting [6]), the ET-1 synthesis entry is reported as “suppressed” and the “proET-1 peptide production (NT-proET-1, ELDP, CT-proET-1)” value is listed as “no effect”. Besides, the “increase in big ET-1 compared to basal” value in series [1] (1 mM phosphoramidon, confluent human aortic endothelial cells, mean ± SD from 4 experiments) turned out to be 14.9 ± 2.8 fold.
Consider “APETAVLGAELSAVGENGGEKPTPSPPWRLRRS [NT-proET-1]”, for which, in series [2] (1 nmol/kg i.v. bolus), the “time to almost complete clearance from the circulation” value is less than 5 min. The “estimated initial t½” value in series [2] (1 nmol/kg i.v. bolus, plasma) is given as less than 20 s. For the same molecule, in series [2], the “plasma level at 30 s as % of administered peptide, relative to estimates for dilution in circulating blood” value is “≈ 1%” and the level at time molar at 0.5 min is 0.29 ± 0.02 nM.
Turning to Apple procyanidin pentamer, the “synthesis/secretion of all peptides (ET-1, big ET-1 and proET-1 peptides)” value in series [1] (apple procyanidin pentamer 2.5 or 5 µg/ml, grape seed extract 5 µg/ml, TGFß 1 ng/ml, % basal release, 4 experiments) is “reduced”.
With Endothelin-1 [ET-1], in series [3], the “t½ in the circulation” value was 30 to 60 s.
Consider “SSEEHLRQTRSETMRNSVKSSFHDPKLKGKPSRERYVTHNRAHW [CT-proET-1]”, for which, in series [2] (setting [7]), the “estimated t½, phase 1” value was 42 s and the “estimated t½, phase 2” value was 438 s. Also, in series [2], the “plasma level at 30 s as % of administered peptide, relative to estimates for dilution in circulating blood” value is reported as 34–51% and the level at time molar at 0.5 min is 11.7 ± 0.64 nM. For the same molecule, in series [4], the “elution position on RP-HPLC (fraction number)” value amounted to 28 fraction.
In the case of TNFα, in series [1] (TNFα 10 ng/ml, 4 experiments), the “ET-1 and ELDP in conditioned media” value is “did not change”; the “big ET-1 concentrations” value is listed as “increased”; the “levels of NT-proET-1 and CT-proET-1 in conditioned media” value was “significantly increased”.
On to “ppET-1[110–130]: preproendothelin [110–130] fragment tested in an earlier study (QCASQKDKKCWNFCQAGKELR; UniProt P05305 110-130, looked up, fragment)”, for which, in series [5], the cardiovascular effects entry was “failed to show any cardiovascular effects”.
